# pIC50: −log10 of the molar value.
# System: human non-small lung cancer cells
# Test: In vitro cytotoxicity
# Type: cell-based
# Conditions: 72 hrs, cell survival ratio
smiles,measurement,value
CC(=O)O[C@H]1C(=O)[C@@]2(C)[C@H]([C@H](OC(=O)c3ccccc3)[C@]3(O)C[C@H](OC(=O)[C@H](O)[C@@H](NC(=O)c4ccccc4)c4ccccc4)C(C)=C1C3(C)C)[C@]1(OC(C)=O)CO[C@@H]1C[C@@H]2O [paclitaxel],pIC50,~8.00

# From patent US10517961B2, “Drug formulation based on particulates comprising polysaccharide-vitamin conjugate” (ZY Therapeutics, Inc., priority 2015, dated 2019)
